Source: patent publication US4937229A, “Pineapple ketone carbonate derivatives” (priority 1989, dated 1990)
Where two headings read alike, the source gives them in different places.

Experiments:
[1] = physchem; conditions: toluene
[2] = 0 min

CC1=C(O)C(=O)C(C)O1 (stereo not drawn) [Pineapple ketone, 2,5-dimethyl-4-hydroxy-3(2H)-furanone]
% Remaining (0 min): 100%
% Remaining (toluene, 15 h): 24%
% Remaining (toluene, 41 h): 18%
% Remaining (toluene, 116 h): 6%
% Remaining (toluene, 138 h): 4%
remaining at 21 h [1]: 100%
remaining at 48 h [1]: 58%
remaining at 72 h [1]: 30%
remaining at 149 h [1]: 8%
remaining at 172 h [1]: 9%
% Remaining [2]: 100%

CCOC(=O)OC1=C(C)OC(C)C1=O (stereo not drawn) [Example 1, ETHYL 2,5-DIMETHYL-3-OXO-4(2H)-FURYL CARBONATE]
% Remaining (0 min): 100%
remaining at 21 h [1]: 100%
remaining at 46 h [1]: 100%
remaining at 69 h [1]: 100%
remaining at 149 h [1]: 100%
remaining at 173 h [1]: 100%
% Remaining [2]: 100%
